Data published in patent US20250312258A1, “2,3-PYRROLIDINEDIONE CONJUGATES AND METHODS OF USING THEREOF” (North Carolina State University, priority 2022, published 2025).
In brackets after ≈: the same amount, converted by molar mass. Where two headings read alike, the source gives them in different places.

Columns and labels:
vanA VRE 700221 = assay: MIC against vanA VRE 700221; format: cell-based, Enterococcus spp.; settings: Enterococcus
MRSA (strain LAC) = assay: Time-dependent killing of MRSA (strain LAC); format: cell-based, Staphylococcus aureus; settings: liquid culture, single inoculation, FIG. 3
From the text: FIG. 3 is a plot showing the time-dependent killing of MRSA (strain LAC) by vancomycin and an example vancomycin-2-3-pyrrolidinedione conjugate (Compound 4).
(§1) With these initial results in hand, the time-dependent killing of bacterial strains by the vancomycin-2-3-pyrrolidinedione conjugates was investigated. FIG. 2 is a plot showing the time-dependent killing of S. aureus (strain HG003) by vancomycin and an example vancomycin-2-3-pyrrolidinedione conjugate (Compound 4, also referred to as AV-273). FIG. 3 is a plot showing the time-dependent killing of MRSA (strain LAC) by vancomycin and an example vancomycin-2-3-pyrrolidinedione conjugate (Compound 4).

vanC-1 VRE 49608 = assay: MIC against vanC-1 VRE 49608; format: cell-based, Enterococcus spp.; settings: Enterococcus
MSSA ATCC 25923 biofilm = assay: Viable bacteria in supernatant and biofilm after single treatment of MSSA biofilm; format: cell-based, Staphylococcus aureus
From the text: FIG. 5 is a plot showing the effect of a single dose of different concentrations of Compound 4 on the concentration of bacteria in the supernatant over a methicillin-susceptible Staphylococcus aureus (MSSA ATCC 25923). FIG. 6 is a plot showing the time-dependent biofilm population following treatment of a methicillin-susceptible Staphylococcus aureus (MSSA ATCC 25923) biofilm with Compound 4. […] FIG. 5 is a plot showing the effect of a single dose of different concentrations of Compound 4 on the concentration of bacteria in the supernatant over a methicillin-susceptible Staphylococcus aureus (MSSA ATCC 25923). […] FIG. 6 is a plot showing the time-dependent biofilm population following treatment of a methicillin-susceptible Staphylococcus aureus (MSSA ATCC 25923) biofilm with Compound 4.

S. aureus VRS-2 = assay: VRSA thigh infection model in neutropenic mice; format: in vivo, mouse; settings: 100 mg/kg IP BID q12h; for bacterial count reduction in thigh tissue relative to the vehicle control group: 26 h post-infection, p<0.05
Description: (§2) FIG. 8 is a plot comparing the efficacy of linezolid, Compound 4 (AV-0273), and Compound 8 (AV-0267) in the S. aureus VRS-2 thigh infection model, CFU/g thigh. Test animals were rendered neutropenic with cyclophosphamide administration, 150 mg/kg on Day −4 then 100 mg/kg on Day −1 prior to infection on Day 0. On Day 0, animals were intramuscularly inoculated with 8.4×10^4 CFU/mouse (0.1 mL/animal) of the S. aureus VRS-2 strain. The vehicle and the test articles, Compound 4 (AV-0273) and Compound 8 (AV-0267), both at 100 mg/kg, were each intraperitoneally (IP) administered twice with a 12 h interval (BID q12h) at 2 and 14 h after infection. The reference standard, linezolid at 50 mg/kg, was orally (PO) administered BID q12 h starting at 2 h post-infection. Animals were sacrificed at 2 or 26 h post-infection, and the thigh tissues were harvested and weighed from each of the test animals. The bacterial counts (CFU/g thigh) of thigh tissue homogenates were measured.
as §2, with “FIG. 9” for “FIG. 8”, “of linezolid” for “of linezolid,”, “CFU/g thigh, change in bacterial counts relative to baseline count at 26h post-infection. Data represent the change in bacterial counts in thigh tissue following test article treatment relative to the initial 2 h CFU/g thigh or CFU/thigh at the time of dosing (baseline counts).” for “CFU/g thigh.”, “(BID q12 h)” for “(BID q12h)”, “(CFU/g thigh and CFU/thigh)” for “(CFU/g thigh)”, “were compared.” for “were measured.”
Example vancomycin-2,3-pyrrolidinediones conjugates were evaluated using an in vivo tissue infection model with vancomycin resistant MRSA:
Animal model: Murine thigh infection
Bacteria: VRSA (VRS-2). Gram Positive, Staphylococcus aureus (VRSA, VRS-2), Mouse Infected Thigh Model. VRS-2 is VanA producing SCC Mec II st5 train.
Vancomycin conjugates dose: 100 mg/Kg intraperitoneally (IP).
Application: This model assesses the antimicrobial efficacy of test articles in a tissue infection model with vancomycin resistant MRSA. Microbial counts are measured. […]

S. aureus (strain HG003) = assay: Time-dependent killing of S. aureus (strain HG003); format: cell-based, Staphylococcus aureus; settings: S. aureus strain HG003, liquid culture, single inoculation, FIG. 2
From the text: FIG. 2 is a plot showing the time-dependent killing of S. aureus (strain HG003) by vancomycin and an example vancomycin-2-3-pyrrolidinedione conjugate (Compound 4).
as §1

VSE 2127 = assay: MIC against VSE 2127; format: cell-based, Enterococcus spp.
VRSA = settings: S. aureus VRS-2; cited from earlier work

| MIC (vanA VRE 700221; VRE, the 2nd table, read-out: MIC (vanA VRE 700221)) [µg/mL] | MIC (vanA VRE 700221; vanA VRE 700221, the 3rd table, read-out: MIC) [µg/mL] | MIC (vanC-1 VRE 49608; VRE, the 2nd table, read-out: MIC (vanC-1 VRE 49608)) [µg/mL] | MIC (vanC-1 VRE 49608; vanC-1 VRE 49608, the 3rd table, read-out: MIC) [µg/mL] | MIC (VSE 2127; Enterococcus; read-out: MIC (VSE 2127)) [µg/mL] | SMILES | time-dependent killing profile (MRSA (strain LAC)) | single dose at which no viable bacterial cells were detected in the treatment supernatant (MSSA ATCC 25923 biofilm; MSSA ATCC 25923, detection limit 10^2, FIG. 5) | viable biofilm-embedded bacterial cells (MSSA ATCC 25923 biofilm; MSSA ATCC 25923 biofilm, 24 hours after a single treatment at twice the MBEC, FIG. 6) | bacterial count reduction in thigh tissue relative to the vehicle control group (S. aureus VRS-2) [%] | effect relative to the baseline control (S. aureus VRS-2; FIG. 9) | time-dependent killing profile (S. aureus (strain HG003)) | MIC (vanA VRE 700221; VRE) [µg/mL] | MIC (vanA VRE 700221; VRE, read-out: MIC (vanA VRE 700221)) [µg/mL] | MIC (vanC-1 VRE 49608; VRE) [µg/mL] | MIC (vanC-1 VRE 49608; VRE, read-out: MIC (vanC-1 VRE 49608)) [µg/mL] | MIC (VSE 2127; Enterococcus, read-out: MIC (VSE 2127)) [µg/mL] | MIC of vancomycin for VRS-2 (strain description) (VRSA) [µg/mL] | antibiotic resistance profile of VRS-2: vancomycin (VRSA) [µg/mL] |
| --- | --- | --- | --- | --- | --- | --- | --- | --- | --- | --- | --- | --- | --- | --- | --- | --- | --- | --- |
| 8 (≈ 20.9 µM) | 8 (≈ 20.9 µM) | 0.5 (≈ 1.31 µM) | 0.5 (≈ 1.31 µM) | 0.5 (≈ 1.31 µM) | CCC1C(c2ccc(C(F)(F)F)cc2)=C(O)C(=O)N1C1CCC(NC)CC1 (stereo not shown) [Compound 4] | roughly matched vancomycin at the same concentration | at least 16 μg/mL | no viable biofilm-embedded bacterial cells were detected | 100 | bacteriostatic effect | roughly matched vancomycin at the same concentration |  |  |  |  |  |  |  |
|  |  |  |  |  | CCC1C(c2ccc(C(F)(F)F)cc2)=C(O)C(=O)N1CCCNCCCCNC (stereo not shown) [Compound 8] |  |  |  | 100 |  |  |  |  |  |  |  |  |  |
|  |  |  |  |  | CN[C@H](CC(C)C)C(=O)N[C@H]1C(=O)N[C@@H](CC(N)=O)C(=O)N[C@H]2C(=O)N[C@H]3C(=O)N[C@H](C(=O)N[C@H](C(=O)O)c4cc(O)cc(O)c4-c4cc3ccc4O)[C@H](O)c3ccc(c(Cl)c3)Oc3cc2cc(c3O[C@@H]2O[C@H](CO)[C@@H](O)[C@H](O)[C@H]2O[C@H]2C[C@](C)(N)[C@H](O)[C@H](C)O2)Oc2ccc(cc2Cl)[C@H]1O [Vancomycin, vancomycin, reference compound] |  |  |  |  |  |  | 512 (≈ 353 µM) | 512 (≈ 353 µM) | 32 (≈ 22.1 µM) | 32 (≈ 22.1 µM) | 2 (≈ 1.38 µM) | > 64 | > 64 |
